Data as given in patent publication US6245521A, “Assay for evaluating the affinity of compounds to the glutamate GluR5 receptor” (Eli Lilly and Company, priority 1999, dated 2001).

Key:
human GluR5 [1] = biological target: T1, human GluR5 (Homo sapiens, UniProt P39086); assay: ATPA selectivity profile in binding studies, displacement of 3[H] kainate
T1 construct: expressed in transfected cells; host or cells: HEK293
Procedure: (§1) Activity of compounds acting at the kainate receptor, GluR5, can be determined by radiolabeled ligand binding studies at the cloned and expressed human GluR5 receptor (Korczak et al., 1994, Recept. Channels 3; 41-49), and by whole cell voltage clamp electrophysiological recordings of currents in acutely isolated rat dorsal root ganglion neurons (Bleakman et al., 1996, Mol. Pharmacol. 49; 581-585). The selectivity of compounds acting at GluR5 receptors is determined by measurement of activity at other AMPA and kainate receptors including receptor-ligand binding studies and whole-cell voltage clamp electrophysiological recordings of functional activity at human GluR1-GluR4 receptors (Fletcher et al., 1995, Recept. Channels 3; 21-31), at human GluR6 receptors (Hoo et al., Recept. Channels 2;327-338), at AMPA receptors in acutely isolated cerebellar Purkinje neurons (Bleakman et al., 1996, Mol. Pharmacol. 49; 581-585), and other tissues expressing AMPA receptors (Fletcher and Lodge, 1996, Pharmacol. Ther. 70; 65-89).
(§2) Cell lines (HEK293 cells) stably transfected with human GluR receptors were employed. Displacement of ^3 [H] AMPA by increasing concentrations of ATPA was used on GluR1-4-expressing cells and ^3 [H] kainate (KA) on GluR5, 6, 7 KA2-expressing cells.

human KA2 = biological target: T2, human KA2 (Homo sapiens, UniProt Q16478); assay: as above; conditions: HEK293 cells stably transfected with human KA2
T2 construct: expressed in transfected cells; host or cells: HEK293
T2 sequence (Q16478 15-980): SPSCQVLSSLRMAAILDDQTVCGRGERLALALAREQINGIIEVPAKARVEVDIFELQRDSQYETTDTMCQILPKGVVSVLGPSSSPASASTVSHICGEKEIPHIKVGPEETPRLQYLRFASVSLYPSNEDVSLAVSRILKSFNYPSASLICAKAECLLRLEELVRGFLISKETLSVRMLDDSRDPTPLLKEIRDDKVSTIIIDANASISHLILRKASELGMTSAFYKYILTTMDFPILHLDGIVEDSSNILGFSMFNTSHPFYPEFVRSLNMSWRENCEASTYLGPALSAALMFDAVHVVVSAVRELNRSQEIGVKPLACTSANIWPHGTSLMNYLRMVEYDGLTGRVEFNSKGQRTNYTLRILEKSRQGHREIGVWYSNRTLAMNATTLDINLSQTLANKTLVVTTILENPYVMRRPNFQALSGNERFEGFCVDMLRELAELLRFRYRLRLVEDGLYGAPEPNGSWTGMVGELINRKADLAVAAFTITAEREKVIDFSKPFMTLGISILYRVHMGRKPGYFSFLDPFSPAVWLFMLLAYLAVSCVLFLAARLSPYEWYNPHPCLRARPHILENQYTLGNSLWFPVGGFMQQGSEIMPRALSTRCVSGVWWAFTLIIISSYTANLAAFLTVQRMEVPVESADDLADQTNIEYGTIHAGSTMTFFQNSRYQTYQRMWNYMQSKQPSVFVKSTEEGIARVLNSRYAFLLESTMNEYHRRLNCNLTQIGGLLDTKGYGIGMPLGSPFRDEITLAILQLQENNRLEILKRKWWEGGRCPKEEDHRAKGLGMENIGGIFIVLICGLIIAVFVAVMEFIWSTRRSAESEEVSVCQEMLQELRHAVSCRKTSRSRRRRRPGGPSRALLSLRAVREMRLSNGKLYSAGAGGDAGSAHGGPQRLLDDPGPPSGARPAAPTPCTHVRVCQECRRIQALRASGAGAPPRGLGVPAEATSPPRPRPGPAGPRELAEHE
Procedure: as §1
(§3) Cell lines (HEK293 cells) stably transfected with human GluR receptors were employed. Displacement of ^3 [H] AMPA by increasing concentrations of ATPA was used on GluR1-4-expressing cells and ^3 [H] kainate (KA) on GluR5, 6, 7 KA2-expressing cells. Estimated activity (Ki) in nM was as follows.

human GluR6 [2] = biological target: T3, human GluR6 (Homo sapiens, UniProt Q13002); assay: as above; conditions: HEK293 cells stably transfected with human GluR6
T3 construct: expressed in transfected cells; host or cells: HEK293
Procedure: as §1, §3

human GluR7 = biological target: T4, human GluR7 (Homo sapiens, UniProt Q13003); assay: as above; conditions: HEK293 cells stably transfected with human GluR7
T4 construct: expressed in transfected cells; host or cells: HEK293
Procedure: as §1, §3

human GluR4 [3] = biological target: T5, human GluR4 (Homo sapiens, UniProt P48058); assay: ATPA selectivity profile in binding studies, displacement of 3[H] AMPA; conditions: HEK293 cells stably transfected with human GluR4
T5 construct: expressed in transfected cells; host or cells: HEK293
Procedure: as §1, §2

human GluR2 [4] = biological target: T6, human GluR2 (Homo sapiens, UniProt P42262); assay: as above; conditions: HEK293 cells stably transfected with human GluR2
T6 construct: expressed in transfected cells; host or cells: HEK293
Procedure: as §1, §2

human GluR1 [5] = biological target: T7, human GluR1 (Homo sapiens, UniProt P42261); assay: as above; conditions: HEK293 cells stably transfected with human GluR1
T7 construct: expressed in transfected cells; host or cells: HEK293
Procedure: as §1, §3

human GluR1 [6] = biological target: T7, human GluR1; assay: Electrophysiological (patch-clamp) functional studies on transfected HEK293 cells; type: cell-based; conditions: vs 100 mμ AMPA
Procedure: as §1
(§4) Functional studies were carried out on HEK293 cells stably transfected with human GluR receptors and on acutely isolated dorsal root ganglion neurons (DRG) using patch-clamp technology (Bleakman et al., 1996, Mol. Pharmacol., 49, 581-585). EC50 values (mμ) for ATPA were estimated for GluR1-4 vs 100 mμAMPA, GluR5 vs 100 mμ KA, GluR6 vs 1 mμ KA, and DRG vs 30 mμ KA, with the following results: […]

human GluR6 [7] = biological target: T3, human GluR6; assay: as above; type: cell-based; conditions: vs 1 mμ KA
Procedure: as §1, §4

human GluR3 = biological target: T8, human GluR3 (Homo sapiens, UniProt P42263); assay: as above; type: cell-based; conditions: vs 100 mμ AMPA
T8 construct: expressed in transfected cells; host or cells: HEK293
Procedure: as §1, §4

human GluR5 [8] = biological target: T1, human GluR5; assay: as above; type: cell-based
Procedure: as §1
(§5) Functional studies were carried out on HEK293 cells stably transfected with human GluR receptors and on acutely isolated dorsal root ganglion neurons (DRG) using patch-clamp technology (Bleakman et al., 1996, Mol. Pharmacol., 49, 581-585).

human GluR4 [9] = biological target: T5, human GluR4; assay: as above; type: cell-based; conditions: vs 100 mμ AMPA
Procedure: as §1, §5

human GluR2 [10] = biological target: T6, human GluR2; assay: as above; type: cell-based; conditions: vs 100 mμ AMPA
Procedure: as §1, §5

CA1 pyramidal neurons = assay: Electrophysiological test of synaptic transmission in the hippocampus; type: cell-based; conditions: ATPA 1 μM
Text: As mentioned above, ATPA modulates synaptic transmission in the hippocampus. […] It is further believed that such selective modulation of GluR5 is likely to show benefits in the treatment of cognitive function.

[11] = system: dorsal root ganglion neurons (DRG); assay: Patch-clamp functional studies on acutely isolated dorsal root ganglion neurons; type: cell-based; conditions: Rattus norvegicus, Neuron, vs 30 mμ KA
Procedure: as §1
Functional studies were carried out on HEK293 cells stably transfected with human GluR receptors and on acutely isolated dorsal root ganglion neurons (DRG) using patch-clamp technology (Bleakman et al., 1996, Mol. Pharmacol., 49, 581-585). […]

T1 sequence (P39086 31-905 isoform P39086-2 limits assumed): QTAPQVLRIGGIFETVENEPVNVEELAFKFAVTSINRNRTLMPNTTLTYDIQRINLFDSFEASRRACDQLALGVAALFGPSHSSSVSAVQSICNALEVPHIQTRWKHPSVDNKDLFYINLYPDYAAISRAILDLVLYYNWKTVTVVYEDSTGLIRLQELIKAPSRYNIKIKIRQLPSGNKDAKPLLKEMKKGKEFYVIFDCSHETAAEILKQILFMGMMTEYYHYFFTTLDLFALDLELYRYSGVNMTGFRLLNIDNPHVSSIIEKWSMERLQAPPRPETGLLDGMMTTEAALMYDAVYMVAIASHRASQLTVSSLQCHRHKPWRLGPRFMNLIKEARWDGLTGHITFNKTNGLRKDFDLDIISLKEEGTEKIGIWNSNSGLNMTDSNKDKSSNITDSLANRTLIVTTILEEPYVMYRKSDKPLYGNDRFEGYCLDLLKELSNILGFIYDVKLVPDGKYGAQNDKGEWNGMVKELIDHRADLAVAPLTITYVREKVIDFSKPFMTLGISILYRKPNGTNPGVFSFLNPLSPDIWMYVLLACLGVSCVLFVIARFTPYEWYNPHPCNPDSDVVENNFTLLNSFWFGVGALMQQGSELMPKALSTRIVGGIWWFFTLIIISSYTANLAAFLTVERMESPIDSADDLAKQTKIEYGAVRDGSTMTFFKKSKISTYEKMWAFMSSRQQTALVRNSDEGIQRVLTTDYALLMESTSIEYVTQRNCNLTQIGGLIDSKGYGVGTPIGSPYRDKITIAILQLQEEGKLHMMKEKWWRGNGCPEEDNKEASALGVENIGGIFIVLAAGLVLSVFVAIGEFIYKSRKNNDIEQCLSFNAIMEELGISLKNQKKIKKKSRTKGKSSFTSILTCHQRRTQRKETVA
T7 sequence (P42261 19-906): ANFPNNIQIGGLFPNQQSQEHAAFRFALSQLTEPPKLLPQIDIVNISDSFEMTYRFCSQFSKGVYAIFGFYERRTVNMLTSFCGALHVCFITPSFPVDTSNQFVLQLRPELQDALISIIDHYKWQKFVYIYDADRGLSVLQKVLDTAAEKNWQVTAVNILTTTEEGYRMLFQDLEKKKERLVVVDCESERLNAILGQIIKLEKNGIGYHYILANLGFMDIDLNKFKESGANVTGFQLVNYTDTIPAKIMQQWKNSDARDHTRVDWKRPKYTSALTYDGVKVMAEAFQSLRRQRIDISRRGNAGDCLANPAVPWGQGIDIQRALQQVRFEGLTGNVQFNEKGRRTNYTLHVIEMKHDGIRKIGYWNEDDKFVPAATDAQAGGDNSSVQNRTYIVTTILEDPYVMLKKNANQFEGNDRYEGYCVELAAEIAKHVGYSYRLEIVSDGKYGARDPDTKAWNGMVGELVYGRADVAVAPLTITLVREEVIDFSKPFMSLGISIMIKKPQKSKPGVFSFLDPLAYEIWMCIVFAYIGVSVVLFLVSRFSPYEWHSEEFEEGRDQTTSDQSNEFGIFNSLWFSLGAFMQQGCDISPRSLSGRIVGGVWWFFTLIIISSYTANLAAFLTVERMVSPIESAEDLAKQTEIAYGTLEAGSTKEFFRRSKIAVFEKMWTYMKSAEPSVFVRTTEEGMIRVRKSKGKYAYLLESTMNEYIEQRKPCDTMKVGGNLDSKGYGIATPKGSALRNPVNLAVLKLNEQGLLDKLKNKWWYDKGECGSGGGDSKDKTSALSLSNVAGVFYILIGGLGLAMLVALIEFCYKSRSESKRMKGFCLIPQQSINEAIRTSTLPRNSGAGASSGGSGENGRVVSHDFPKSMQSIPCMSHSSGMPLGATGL
T5 sequence (P48058 21-902): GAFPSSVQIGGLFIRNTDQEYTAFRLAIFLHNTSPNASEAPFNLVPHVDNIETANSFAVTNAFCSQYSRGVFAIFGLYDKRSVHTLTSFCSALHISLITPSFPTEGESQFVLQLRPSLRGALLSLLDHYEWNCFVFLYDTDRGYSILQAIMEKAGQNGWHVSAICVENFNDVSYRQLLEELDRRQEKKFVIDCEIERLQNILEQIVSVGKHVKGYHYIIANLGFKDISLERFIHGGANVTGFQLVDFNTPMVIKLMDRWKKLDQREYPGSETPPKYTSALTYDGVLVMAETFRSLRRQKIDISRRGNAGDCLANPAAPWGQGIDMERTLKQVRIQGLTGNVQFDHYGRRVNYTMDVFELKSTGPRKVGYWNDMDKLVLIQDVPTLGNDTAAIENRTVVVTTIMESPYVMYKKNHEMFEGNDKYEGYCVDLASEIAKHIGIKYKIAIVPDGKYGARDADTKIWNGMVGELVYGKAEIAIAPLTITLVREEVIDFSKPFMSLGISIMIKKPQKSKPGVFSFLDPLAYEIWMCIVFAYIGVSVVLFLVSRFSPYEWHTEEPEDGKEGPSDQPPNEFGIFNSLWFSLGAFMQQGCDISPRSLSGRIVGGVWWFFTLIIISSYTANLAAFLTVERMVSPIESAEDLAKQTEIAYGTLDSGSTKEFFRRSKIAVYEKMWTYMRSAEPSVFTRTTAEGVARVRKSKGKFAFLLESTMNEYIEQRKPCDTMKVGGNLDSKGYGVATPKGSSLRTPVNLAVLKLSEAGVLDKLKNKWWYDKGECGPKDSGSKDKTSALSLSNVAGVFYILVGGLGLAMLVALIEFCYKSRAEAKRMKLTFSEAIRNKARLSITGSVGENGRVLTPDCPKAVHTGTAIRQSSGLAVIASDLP
T6 sequence (P42262 25-883): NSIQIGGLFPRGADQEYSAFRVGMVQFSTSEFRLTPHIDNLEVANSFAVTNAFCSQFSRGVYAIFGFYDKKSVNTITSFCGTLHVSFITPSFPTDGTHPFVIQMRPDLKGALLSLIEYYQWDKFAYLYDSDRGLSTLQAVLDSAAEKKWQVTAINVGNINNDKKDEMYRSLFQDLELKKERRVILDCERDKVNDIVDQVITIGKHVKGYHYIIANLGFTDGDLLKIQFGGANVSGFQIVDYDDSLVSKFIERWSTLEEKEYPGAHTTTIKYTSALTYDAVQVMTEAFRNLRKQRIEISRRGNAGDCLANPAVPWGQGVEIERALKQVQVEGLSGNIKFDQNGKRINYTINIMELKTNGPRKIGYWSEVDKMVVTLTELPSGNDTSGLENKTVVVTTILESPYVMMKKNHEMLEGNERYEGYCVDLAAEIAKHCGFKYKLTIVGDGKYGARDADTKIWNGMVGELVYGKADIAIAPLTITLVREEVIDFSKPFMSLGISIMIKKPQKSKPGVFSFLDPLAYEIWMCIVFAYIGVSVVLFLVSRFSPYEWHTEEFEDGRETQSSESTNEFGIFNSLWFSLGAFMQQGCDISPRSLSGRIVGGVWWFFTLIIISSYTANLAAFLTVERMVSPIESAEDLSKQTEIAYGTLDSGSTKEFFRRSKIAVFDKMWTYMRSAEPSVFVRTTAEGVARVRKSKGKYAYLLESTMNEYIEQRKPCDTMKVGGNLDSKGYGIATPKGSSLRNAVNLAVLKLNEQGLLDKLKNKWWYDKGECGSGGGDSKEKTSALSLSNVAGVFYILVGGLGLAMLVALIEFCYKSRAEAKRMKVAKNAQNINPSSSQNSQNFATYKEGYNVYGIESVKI
T3 sequence (Q13002 32-908): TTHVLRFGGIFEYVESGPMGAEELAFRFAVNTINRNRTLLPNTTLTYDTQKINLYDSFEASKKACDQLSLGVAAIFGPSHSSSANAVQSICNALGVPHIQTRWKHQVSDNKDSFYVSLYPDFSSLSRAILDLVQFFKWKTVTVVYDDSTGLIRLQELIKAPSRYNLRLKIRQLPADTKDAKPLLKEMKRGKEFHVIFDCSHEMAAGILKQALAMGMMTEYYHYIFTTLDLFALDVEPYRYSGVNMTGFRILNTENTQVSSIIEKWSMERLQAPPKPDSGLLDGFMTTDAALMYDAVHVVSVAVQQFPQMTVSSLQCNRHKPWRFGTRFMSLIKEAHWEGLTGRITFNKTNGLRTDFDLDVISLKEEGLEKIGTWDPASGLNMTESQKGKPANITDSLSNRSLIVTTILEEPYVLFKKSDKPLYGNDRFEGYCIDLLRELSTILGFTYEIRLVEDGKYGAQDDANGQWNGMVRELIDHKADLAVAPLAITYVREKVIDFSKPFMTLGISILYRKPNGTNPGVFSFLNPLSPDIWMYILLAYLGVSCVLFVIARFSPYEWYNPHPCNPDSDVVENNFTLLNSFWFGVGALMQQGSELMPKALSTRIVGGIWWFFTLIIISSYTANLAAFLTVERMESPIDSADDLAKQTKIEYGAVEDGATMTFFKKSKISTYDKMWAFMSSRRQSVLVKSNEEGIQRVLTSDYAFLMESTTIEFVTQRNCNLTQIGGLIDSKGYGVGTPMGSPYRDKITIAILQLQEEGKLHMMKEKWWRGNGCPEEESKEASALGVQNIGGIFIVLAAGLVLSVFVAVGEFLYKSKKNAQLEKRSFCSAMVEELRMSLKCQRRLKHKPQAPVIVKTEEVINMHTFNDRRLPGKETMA

## CC(C)(C)c1onc(O)c1CC(N)C(=O)O (centres unmarked) [ATPA, 2-amino-3-(3-hydroxy-5-tert-butylisoxazol-4-yl)propanoic acid]
Human GluR5 [1]; HEK293 cells stably transfected with human GluR5, displacement of 3[H] kainate
  Estimated activity (Ki) GluR5: 0.0031 µM
Human GluR5 [1]; binding studies, GluR5 vs other human AMPA and kainate receptors
  fold less potent on other human AMPA and kainate receptors than on human GluR5 in binding studies: more than 1000 fold
Human KA2
  Estimated activity (Ki) KA2: 38.832 µM
Human GluR6 [2]
  Estimated activity (Ki) GluR6: > 1000 µM
Human GluR7
  Estimated activity (Ki) GluR7: 14.319 µM
Human GluR4 [3]
  Estimated activity (Ki) GluR4: 15.747 µM
Human GluR2 [4]
  Estimated activity (Ki) GluR2: 38.616 µM
Human GluR1 [5]
  Estimated activity (Ki) GluR1: 17.59 µM
Human GluR1 [6]
  EC50: > 300 µM
Human GluR6 [7]
  EC50: > 300 µM
Human GluR3
  EC50: > 300 µM
Human GluR5 [8]; HEK293 cells, human GluR5, patch-clamp, vs 100 mμ KA
  EC50: 4 ± 0.7 µM
Human GluR5 [8]; electrophysiological studies, GluR5 and rat DRG neurons vs other human AMPA and kainate receptors
  fold less potent on other human AMPA and kainate receptors than on human GluR5 and rat DRG neurons in electrophysiological studies: 100 fold
Human GluR4 [9]
  EC50: > 300 µM
Human GluR2 [10]
  EC50: > 300 µM
CA1 pyramidal neurons
  effect on synaptic inhibition onto CA1 pyramidal neurons: reduces synaptic inhibition onto CA1 pyramidal neurons
[11]
  EC50: 0.56 µM
